The text below walks through data of patent US20230181482A1, “LIPIDS FOR DELIVERY OF NUCLEIC ACID SEGMENTS” (AstraZeneca AB, priority 2021, published 2023).

SMILES strings stand for the structures.

In one series the test system is Female BALB/c mice. In words: eGFP expression in the liver at 24 hours after intravenous administration of LNP formulations to mouse (ELISA). It is filed as in vivo. Particulars: LNP N/P 3:1, DMPE-PEG2000. From the text: Female BALB/c mice were purchased (SPF (Beijing) Laboratory Animal Technology Co. Ltd.) and on arrival were caged in groups of 4 on corncob bedding, with normal diet and were provided tap drinking water ad libitum that was purified and autoclaved before being offered to the animal. The environment was maintained at a target temperature of […] and relative humidity of 40-80%, with a 12-hour light/dark cycle. Animals were acclimatised to the housing conditions for at least 7 days prior to any experimental procedures and were approximately 6-8 weeks of age at the start of dosing
Animals were assigned to respective groups such that the mean body weights for each treatment groups will be equal. N=4 for each treatment group.
Formulations 1, 3, 4, 5, and 6 from Example 58 were each dosed intravenously: Each mouse was removed from its cage and restrained, and then dosed with a slow IV bolus of a formulation in the lateral tail vein at a dose […] of 0.3 mg/kg.
All animals were sacrificed 24 hours after dosing and flowing blood sampling the liver for the animals dosed by the IV route and the liver and muscle at the dose site for the IM dosed animals were harvested for eGFP analysis by ELISA.
Additional LNP formulations were prepared according to the procedures described in Example 46. These formulations were tested using the same protocol as described herein. The results of eGFP expression in the liver at 24 hours after intravenous administration of the formulations were summarized in Tables 3, 4, 5 and 6 below.
In general terms: ELISA stands for enzyme-linked immunosorbent assay.

Series [1] in a line: LNP particle size by dynamic light scattering (Zetasizer Nano ZS). Format: physicochemical. Particulars: N/P ratio 3:1, DMPE-PEG2000. As to the method: (§1) A solution of eGFP mRNA (purchased from TriLink Biotechnologies) in citrate buffer was prepared by mixing mRNA dissolved in MilliQ-water, 100 mM citrate buffer (pH 3) and MilliQ-water to give a solution of 50 mM citrate. Lipid solution in ethanol (99.5%) was prepared with four different lipid components: ionizable lipid (see Table 1); cholesterol (Sigma-Aldrich); DSPC (distearoyl phosphatidyl choline, Avanti Polar Lipids Inc); and a polymer-conjugated lipid (see Table 1). The ratio of lipids in all experiments was ionizable lipid/cholesterol/DSPC/polymer-conjugated lipid (50/38.5/10/1.5 mol %). The total concentration of lipids in all experiments was 12.5 mM.
(§2) The mRNA and lipid solutions were mixed in a NanoAssemblr (Precision Nanosystems, Vancouver, BC, Canada) microfluidic mixing system at a mixing ratio of Aq:EtOH=3:1 and a constant flow rate of 12 mL/min. The mRNA in citrate buffer solution was prepared such that, at the time of mixing the ratio between the nitrogen atoms on the ionizable lipid and phosphorus atoms (N/P ratio) on the mRNA chain was either 3:1 or 6:1 (see Table 1).
The first 0.2-0.35 mL and the last 0.05-0.1 mL of the LNP suspension prepared were discarded while the rest of the volume was collected as the sample fraction. The size of the mRNA lipid nanoparticles was determined by dynamic light scattering measurements using a Zetasizer Nano ZS from Malvern Instruments Ltd, giving directly the z-average particle diameter. The number-weighted particle size distributions and averages were calculated using a particle refractive index of 1.45.

Series [2] is described as follows: mRNA encapsulation efficiency of LNP formulations (Quant-it Ribogreen assay with Triton-X100). Format: physicochemical. Particulars: N/P ratio 3:1, DMPE-PEG2000. The procedure: as §1, §2
The final mRNA concentration and encapsulation efficiency percentage (% EE) was measured by Quant-it Ribogreen Assay Kit (ThermoFischer Scientific Inc.) using Triton-X100 to disrupt the LNPs. The mRNA encapsulation efficiency was determined according to the following equation: […]

With `CCCCCC(CCCCC)CCOC(=O)CCCCCCCC(CCCCCCCC(=O)OCCC(CCCCC)CCCCC)NCC1CCCO1` (centres unmarked) [Compound 8, bis(3-pentyloctyl) 9-(((tetrahydrofuran-2-yl)methyl)amino)heptadecanedioate], the “Liver eGFP protein (ng/g tissue)” value with Female BALB/c mice (Table 3, 0.3 mg/kg) is reported as 6124.2 ng/g tissue. In series [1] (Table 3), the “<d>N (nm)” value is given as 61 nm and the “<d>Z (nm)” value amounted to 76 nm. In addition, in series [2] (Table 3), the “% EE” value turned out to be 95%.

Turning to `CCCCCC(CCCCC)CCOC(=O)CCCCCCCC(CCCCCCCC(=O)OCCC(CCCCC)CCCCC)NCC1CCCCO1` (centres unmarked) [Compound 6, bis(3-pentyloctyl) 9-(((tetrahydro-2H-pyran-2-yl)methyl)amino)heptadecanedioate], the “Liver eGFP protein (ng/g tissue)” value with Female BALB/c mice (Table 3, 0.3 mg/kg) is 3621.3 ng/g tissue. Besides, in series [1] (Table 3), the “<d>N (nm)” value was determined as 59 nm and the “<d>Z (nm)” value was found to be 77 nm. Further, the “% EE” value in series [2] (Table 3) is 87%.

As for `CCCCCCCCC(CCCCCCCC)OC(=O)CCCCCCCC(CCCCCCCC(=O)OC(C)CCCCC)NCC1CCOC1` (centres unmarked) [Compound 48, 1-(heptadecan-9-yl) 17-(heptan-2-yl) 9-(((tetrahydrofuran-3-yl)methyl)amino)heptadecanedioate], in the series with Female BALB/c mice (Table 6, 0.3 mg/kg), the “Liver eGFP protein (ng/g tissue)” value turned out to be 14749.9 ng/g tissue. Moreover, in series [1] (Table 6), the “<d>N (nm)” value was determined as 60 nm and the “<d>Z (nm)” value is reported as 80 nm. In series [2] (Table 6), the “% EE” value worked out at 90%.

For `CCCCCC(CCCCC)CCOC(=O)CCCCCCCCC(CCCCCCCCC(=O)OCCC(CCCCC)CCCCC)NCC1CCOCC1` [Compound 17, bis(3-pentyloctyl) 10-(((tetrahydro-2H-pyran-4-yl)methyl)amino)nonadecanedioate], the “Liver eGFP protein (ng/g tissue)” value in the series with Female BALB/c mice (Table 4, 0.3 mg/kg) turned out to be 6831.3 ng/g tissue. In series [1] (Table 4), the “<d>N (nm)” value stood at 77 nm and the “<d>Z (nm)” value turned out to be 96 nm. Besides, the “% EE” value in series [2] (Table 4) is reported as 93%.

With `CCCCCCCCC(C)OC(=O)CCCCCCCC(CCCCCCCC(=O)OC(CCCCCCCC)CCCCCCCC)NCC1COC1` (centres unmarked) [Compound 37, 1-(decan-2-yl) 17-(heptadecan-9-yl) 9-((oxetan-3-ylmethyl)amino)heptadecanedioate], the “Liver eGFP protein (ng/g tissue)” value with Female BALB/c mice (Table 5, 0.3 mg/kg) is given as 1225.5 ng/g tissue. In addition, in series [1] (Table 5), the “<d>N (nm)” value is given as 47 nm and the “<d>Z (nm)” value is on record as 60 nm. In addition, the “% EE” value in series [2] (Table 5) is reported as 93%.

For `CCCCCCCCC(CCCCCCCC)OC(=O)CCCCCCCC(CCCCCCCC(=O)OCCC(CC)CCCCCC)NC1CC2(COC2)C1` (centres unmarked) [Compound 44, 1-(3-ethylnonyl) 17-(heptadecan-9-yl) 9-((2-oxaspiro[3.3]heptan-6-yl)amino)heptadecanedioate], the “Liver eGFP protein (ng/g tissue)” value in the series on Female BALB/c mice (Table 5, 0.3 mg/kg) came out at 6582.0 ng/g tissue. Moreover, in series [1] (Table 5), the “<d>N (nm)” value was 65 nm and the “<d>Z (nm)” value is reported as 80 nm. In addition, the “% EE” value in series [2] (Table 5) worked out at 97%.

For `CCCCCC(CCCCC)CCOC(=O)CCCCCCCCC(CCCCCCCCC(=O)OCCC(CCCCC)CCCCC)NCC1COC1` [Compound 18, bis(3-pentyloctyl) 10-((oxetan-3-ylmethyl)amino)nonadecanedioate], in the series with Female BALB/c mice (Table 4, 0.3 mg/kg), the “Liver eGFP protein (ng/g tissue)” value is listed as 6817.5 ng/g tissue. Besides, in series [1] (Table 4), the “<d>N (nm)” value was determined as 67 nm and the “<d>Z (nm)” value came to 86 nm. For the same compound, in series [2] (Table 4), the “% EE” value turned out to be 97%.

`CCCCCCCCCC(=O)OCCCCCCCC(CCCCCCCC(=O)OC(CCCCCCCC)CCCCCCCC)NC1CC2(COC2)C1` (centres unmarked) [Compound 54, Heptadecan-9-yl 9-((2-oxaspiro[3.3]heptan-6-yl)amino)-16-(decanoyloxy)hexadecanoate]: in the series on Female BALB/c mice (Table 6, 0.3 mg/kg), the “Liver eGFP protein (ng/g tissue)” value is 10704.5 ng/g tissue. Also, in series [1] (Table 6), the “<d>N (nm)” value was 62 nm and the “<d>Z (nm)” value is reported as 81 nm. In addition, the “% EE” value in series [2] (Table 6) is recorded as 95%.

`CCCCCCCCC(CCCCCCCC)OC(=O)CCCCCCC(CCCCCCC(=O)OCCC(CCCCCCC)CCCCCCC)NC1CC2(COC2)C1` (centres unmarked) [Compound 27, 1-(heptadecan-9-yl) 15-(3-heptyldecyl) 8-((2-oxaspiro[3.3]heptan-6-yl)amino)pentadecanedioate]: in the series on Female BALB/c mice (Table 4, 0.3 mg/kg), the “Liver eGFP protein (ng/g tissue)” value turned out to be 4982.6 ng/g tissue. In series [1] (Table 4), the “<d>N (nm)” value is reported as 55 nm and the “<d>Z (nm)” value is given as 98 nm. Further, the “% EE” value in series [2] (Table 4) is 97%.

As for `CCCCCCCCCOC(=O)CCCCCC(CCCCCC(=O)OC(CCCCCCCC)CCCCCCCC)NCC1COC1` (centres unmarked) [Compound 20, 1-(heptadecan-9-yl) 13-nonyl 7-((oxetan-3-ylmethyl)amino)tridecanedioate], the “Liver eGFP protein (ng/g tissue)” value in the series on Female BALB/c mice (Table 4, 0.3 mg/kg) is recorded as 9757.7 ng/g tissue. In series [1] (Table 4), the “<d>N (nm)” value is 53 nm and the “<d>Z (nm)” value was 67 nm. In addition, the “% EE” value in series [2] (Table 4) worked out at 97%.

Turning to `CCCCCCCCC(CCCCCCCC)OC(=O)CCCCCCCC(CCCCCCCCCC(=O)OC(C)CCCCCC)NC1CC2(COC2)C1` (centres unmarked) [Compound 55, 1-(heptadecan-9-yl) 19-(octan-2-yl) 9-((2-oxaspiro[3.3]heptan-6-yl)amino)nonadecanedioate], the “Liver eGFP protein (ng/g tissue)” value with Female BALB/c mice (Table 6, 0.3 mg/kg) is recorded as 18695.5 ng/g tissue. Moreover, in series [1] (Table 6), the “<d>N (nm)” value amounted to 62 nm and the “<d>Z (nm)” value stood at 77 nm. Moreover, in series [2] (Table 6), the “% EE” value worked out at 93%.

Consider `CCCCCC(CCCCC)CCOC(=O)CCCCCCCC(CCCCCCCC(=O)OCCC(CCCCC)CCCCC)NCCC1CCOCC1` [Compound 7, bis(3-pentyloctyl) 9-((2-(tetrahydro-2H-pyran-4-yl)ethyl)amino)heptadecanedioate], for which the “Liver eGFP protein (ng/g tissue)” value in the series with Female BALB/c mice (Table 3, 0.3 mg/kg) came to 6526.4 ng/g tissue. For the same compound, in series [1] (Table 3), the “<d>N (nm)” value was found to be 54 nm and the “<d>Z (nm)” value came to 77 nm. In series [2] (Table 3), the “% EE” value is on record as 94%.

As for `CCCCCC(CCCCC)CCOC(=O)CCCCCCCCC(CCCCCCCCC(=O)OCCC(CCCCC)CCCCC)NCC1CCCCO1` (centres unmarked) [Compound 16, bis(3-pentyloctyl) 10-(((tetrahydro-2H-pyran-2-yl)methyl)amino)nonadecanedioate], in the series on Female BALB/c mice (Table 4, 0.3 mg/kg), the “Liver eGFP protein (ng/g tissue)” value is listed as 1393.4 ng/g tissue. Also, in series [1] (Table 4), the “<d>N (nm)” value came out at 61 nm and the “<d>Z (nm)” value was found to be 78 nm. For the same compound, the “% EE” value in series [2] (Table 4) worked out at 91%.

Consider `CCCCCCCCC(CCCCCCCC)OC(=O)CCCCCCCC(CCCCCCCC(=O)OCC(C)CCCCCCC)NCC1CCOC1` (centres unmarked) [Compound 21, 1-(heptadecan-9-yl) 17-(2-methylnonyl) 9-(((tetrahydrofuran-3-yl)methyl)amino)heptadecanedioate], for which the “Liver eGFP protein (ng/g tissue)” value with Female BALB/c mice (Table 5, 0.3 mg/kg) was 4103.6 ng/g tissue. Further, in series [1] (Table 5), the “<d>N (nm)” value stood at 57 nm and the “<d>Z (nm)” value is recorded as 72 nm. The “% EE” value in series [2] (Table 5) was 97%.

Consider `CCCCCCCCC(CCCCCCCC)OC(=O)CCCCCCCC(CCCCCCCC(=O)OCC(CCCCCCC)CCCCCCC)NC1CC2(COC2)C1` (centres unmarked) [Compound 33, 1-(heptadecan-9-yl) 17-(2-heptylnonyl) 9-((2-oxaspiro[3.3]heptan-6-yl)amino)heptadecanedioate], for which the “Liver eGFP protein (ng/g tissue)” value with Female BALB/c mice (Table 4, 0.3 mg/kg) is 1056.2 ng/g tissue. Besides, in series [1] (Table 4), the “<d>N (nm)” value is 53 nm and the “<d>Z (nm)” value was determined as 67 nm. Besides, the “% EE” value in series [2] (Table 4) turned out to be 97%.

Take `CCCCCCCCC(C)OC(=O)CCCCCCCC(CCCCCCCC(=O)OC(CCCCCCCC)CCCCCCCC)NCC1CCOCC1` (centres unmarked) [Compound 35, 1-(decan-2-yl) 17-(heptadecan-9-yl) 9-(((tetrahydro-2H-pyran-4-yl)methyl)amino)heptadecanedioate]: the “Liver eGFP protein (ng/g tissue)” value in the series with Female BALB/c mice (Table 5, 0.3 mg/kg) was 5974.6 ng/g tissue. Moreover, in series [1] (Table 5), the “<d>N (nm)” value came to 59 nm and the “<d>Z (nm)” value stood at 77 nm. Besides, the “% EE” value in series [2] (Table 5) was 95%.

Take `CCCCCCCCC(CCCCCCCC)OC(=O)CCCCCCCC(CCCCCCCC(=O)OC(CCCCCCCC)CCCCCCCC)NC1CC2(COC2)C1` [Compound 31, Di(heptadecan-9-yl) 9-((2-oxaspiro[3.3]heptan-6-yl)amino)heptadecanedioate]: the “Liver eGFP protein (ng/g tissue)” value in the series on Female BALB/c mice (Table 4, 0.3 mg/kg) is on record as 1319.3 ng/g tissue. Besides, in series [1] (Table 4), the “<d>N (nm)” value worked out at 47 nm and the “<d>Z (nm)” value is listed as 62 nm. Further, the “% EE” value in series [2] (Table 4) is 94%.
